Assay results from PubChem BioAssay (NCI).
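Values below derive from 48-hour exposures of cells grown in 96-well plates, with endpoints linearly interpolated between the two concentrations bracketing the appropriate inhibition level. TGI is the concentration that stops growth completely.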

Columns and labels:
Assay in all cases: NCI-60 cell line screen, 48 h
[1] = tested on: OVCAR-3 ovarian
[2] = tested on: MOLT-4 leukemia
[3] = tested on: CCRF-CEM leukemia
[4] = tested on: K-562 leukemia
[5] = tested on: M19-MEL melanoma
[6] = tested on: KM12 colon
[7] = tested on: NCI-H226 lung
[8] = tested on: U251 CNS
[9] = tested on: 786-0 renal
[10] = tested on: IGROV1 ovarian
[11] = tested on: LXFL 529 NSCLC
[12] = tested on: COLO 205 colon
[13] = tested on: SF-295 CNS
[14] = tested on: EKVX NSCLC
[15] = tested on: OVCAR-4 ovarian
[16] = tested on: HL-60(TB) leukemia
[17] = tested on: RXF 393 renal
[18] = tested on: KM20L2 colon
[19] = tested on: NCI-H23 lung
[20] = tested on: NCI-H522 lung
[21] = tested on: ACHN renal
[22] = tested on: HOP-62 NSCLC
[23] = tested on: SK-MEL-28 melanoma
[24] = tested on: SF-268 CNS
[25] = tested on: MALME-3M melanoma
[26] = tested on: SR leukemia
[27] = tested on: M14 melanoma
[28] = tested on: HCT-116 colon
[29] = tested on: TK-10 renal
[30] = tested on: DMS 273 small cell lung
[31] = tested on: SNB-78 CNS
[32] = tested on: OVCAR-5 ovarian
[33] = tested on: OVCAR-8 ovarian
[34] = tested on: HOP-18 NSCLC
[35] = tested on: RPMI-8226 leukemia
[36] = tested on: HT29 colon
[37] = tested on: SK-OV-3 ovarian
[38] = tested on: HCC-2998 colon
[39] = tested on: UACC-257 melanoma
[40] = tested on: UO-31 renal
[41] = tested on: DMS 114 small cell lung
[42] = tested on: DLD-1 colon
[43] = tested on: SW-620 colon
[44] = tested on: NCI-H460 lung
[45] = tested on: LOX IMVI melanoma
[46] = tested on: RXF-631 renal
[47] = tested on: UACC-62 melanoma
[48] = tested on: HCT-15 colon
[49] = tested on: CAKI-1 renal
[50] = tested on: SF-539 CNS
[51] = tested on: SNB-19 CNS
[52] = tested on: SK-MEL-2 melanoma
[53] = tested on: XF 498 CNS
[54] = tested on: A549 NSCLC
[55] = tested on: SN12C renal
[56] = tested on: SNB-75 CNS
[57] = tested on: NCI/ADR-RES ovarian
[58] = tested on: A498 renal
[59] = tested on: PC-3 prostate
[60] = tested on: MDA-N
[61] = tested on: MDA-MB-435
[62] = tested on: DU-145 prostate
[63] = tested on: SK-MEL-5 melanoma
[64] = tested on: MDA-MB-231 breast
[65] = tested on: HS 578T breast
[66] = tested on: MCF7 breast
[67] = tested on: BT-549 breast
[68] = tested on: HOP-92 NSCLC
[69] = tested on: T-47D breast

What does the source list for `CCOC(=O)c1cc(-c2ccc(-c3cc(C(=O)OCC)c(C#N)c(N)c3C#N)cc2)c(C#N)c(N)c1C#N`?
TGI [1]: > 100 µM; TGI [2]: > 100 µM; TGI [3]: > 100 µM; TGI [4]: > 100 µM; TGI [5]: > 100 µM; TGI [6]: > 100 µM; TGI [7]: > 100 µM; TGI [8]: > 100 µM; TGI [9]: > 100 µM; TGI [10]: > 100 µM; TGI [11]: > 100 µM; TGI [12]: > 100 µM; TGI [13]: > 100 µM; TGI [14]: > 100 µM; TGI [15]: > 100 µM; TGI [16]: > 100 µM; TGI [17]: > 100 µM; TGI [18]: > 100 µM; TGI [19]: > 100 µM; TGI [20]: > 100 µM; TGI [21]: > 100 µM; TGI [22]: > 100 µM; TGI [23]: > 100 µM; TGI [24]: > 100 µM; TGI [25]: > 100 µM; TGI [26]: > 100 µM; TGI [27]: > 100 µM; TGI [28]: > 100 µM; TGI [29]: > 100 µM; TGI [30]: > 100 µM; TGI [31]: > 100 µM; TGI [32]: > 100 µM; TGI [33]: > 100 µM; TGI [34]: > 100 µM; TGI [35]: > 100 µM; TGI [36]: > 100 µM; TGI [37]: > 100 µM; TGI [38]: > 100 µM; TGI [39]: > 100 µM; TGI [40]: > 100 µM; TGI [41]: > 100 µM; TGI [42]: > 100 µM; TGI [43]: > 100 µM; TGI [44]: > 100 µM; TGI [45]: > 100 µM; TGI [46]: > 100 µM; TGI [47]: > 100 µM; TGI [48]: > 100 µM; TGI [49]: > 100 µM; TGI [50]: > 100 µM; TGI [51]: > 100 µM; TGI [52]: > 100 µM; TGI [53]: > 100 µM; TGI [54]: > 100 µM; TGI [55]: > 100 µM

For `O=C(NC(=O)c1c(Cl)nc2sccn12)Nc1ccc(Cl)cc1`, which TGI [1] is on record?
The TGI was over 100 µM.

What about the TGI [2] of the same compound?
The TGI was over 100 µM.

What about the TGI [56] of the same compound?
Its TGI is 47.1 µM.

And the TGI [3]?
Its TGI is over 100 µM.

What about the TGI [4] of the same compound?
The TGI was over 100 µM.

And the TGI [5]?
Its TGI is over 100 µM.

What about the TGI [6] of the same compound?
The TGI was over 100 µM.

What about the TGI [7] of the same compound?
Its TGI is 89.7 µM.

What about the TGI [8] of the same compound?
The TGI was 55.9 µM.

What about the TGI [9] of the same compound?
The TGI was over 90.1 µM.

What about the TGI [10] of the same compound?
Its TGI is over 100 µM.

And the TGI [12]?
The TGI was over 100 µM.

What about the TGI [57] of the same compound?
Its TGI is over 100 µM.

What about the TGI [58] of the same compound?
The TGI was over 97.6 µM.

And the TGI [13]?
The TGI was 70.2 µM.

And the TGI [14]?
Its TGI is over 100 µM.

What about the TGI [15] of the same compound?
The TGI was over 100 µM.

What about the TGI [16] of the same compound?
The TGI was over 100 µM.

And the TGI [17]?
The TGI was 76.2 µM.

What about the TGI [18] of the same compound?
Its TGI is over 100 µM.

And the TGI [59]?
Its TGI is over 56.2 µM.

And the TGI [19]?
Its TGI is 88.1 µM.

What about the TGI [60] of the same compound?
The TGI was over 100 µM.

What about the TGI [61] of the same compound?
Its TGI is over 100 µM.

And the TGI [20]?
The TGI was over 100 µM.

And the TGI [21]?
Its TGI is over 100 µM.

And the TGI [22]?
The TGI was 43.3 µM.

What about the TGI [23] of the same compound?
The TGI was over 100 µM.

And the TGI [24]?
The TGI was 53.9 µM.

And the TGI [25]?
The TGI was over 100 µM.

And the TGI [26]?
Its TGI is over 100 µM.

And the TGI [62]?
Its TGI is over 100 µM.

What about the TGI [63] of the same compound?
The TGI was over 100 µM.

And the TGI [27]?
The TGI was over 100 µM.

And the TGI [28]?
Its TGI is over 100 µM.

What about the TGI [29] of the same compound?
The TGI was 89.2 µM.

What about the TGI [30] of the same compound?
Its TGI is over 100 µM.

What about the TGI [31] of the same compound?
Its TGI is over 100 µM.

And the TGI [32]?
Its TGI is over 100 µM.

What about the TGI [33] of the same compound?
Its TGI is over 100 µM.

What about the TGI [64] of the same compound?
Its TGI is 68.5 µM.

What about the TGI [65] of the same compound?
The TGI was 62.9 µM.

And the TGI [35]?
Its TGI is over 100 µM.

What about the TGI [66] of the same compound?
Its TGI is over 100 µM.

And the TGI [36]?
Its TGI is over 100 µM.

What about the TGI [37] of the same compound?
The TGI was 57.5 µM.

What about the TGI [38] of the same compound?
Its TGI is over 93.6 µM.

What about the TGI [39] of the same compound?
Its TGI is over 100 µM.

What about the TGI [40] of the same compound?
The TGI was over 84.4 µM.

And the TGI [67]?
The TGI was over 81.9 µM.

What about the TGI [41] of the same compound?
Its TGI is over 100 µM.

What about the TGI [42] of the same compound?
The TGI was over 100 µM.

And the TGI [68]?
Its TGI is 66.6 µM.

And the TGI [43]?
The TGI was over 100 µM.

What about the TGI [44] of the same compound?
The TGI was over 100 µM.

What about the TGI [45] of the same compound?
Its TGI is over 100 µM.

And the TGI [46]?
The TGI was over 100 µM.

What about the TGI [47] of the same compound?
Its TGI is over 100 µM.

And the TGI [69]?
Its TGI is over 100 µM.

What about the TGI [48] of the same compound?
The TGI was over 100 µM.

And the TGI [49]?
The TGI was over 100 µM.

And the TGI [50]?
Its TGI is 73.1 µM.

What about the TGI [51] of the same compound?
The TGI was 74.1 µM.

What about the TGI [52] of the same compound?
The TGI was over 100 µM.

What about the TGI [53] of the same compound?
Its TGI is 42.3 µM.

And the TGI [54]?
The TGI was over 100 µM.

What about the TGI [55] of the same compound?
Its TGI is over 100 µM.
